The text below walks through data of patent US7071293B1, “Alpha helical peptides with broad spectrum antimicrobial activity that are insensitive to salt” (priority 1999, dated 2006).

In brackets after ≈: the same amount, converted by molar mass. Like-named read-outs stand apart in the source and are kept apart here. Ends that are not written are not given here.

The experiment relates to P. aeruginosa PAO1. The conditions noted are these: for EC50 P. aeruginosa PAO1: avg ± sem; for EC50 P. aeruginosa PAO1 μg/ml ± sem: average ± sem.

On to `CC[C@H](C)[C@H](N)C(=O)N[C@@H](CCCNC(=N)N)C(=O)N[C@@H](CCCNC(=N)N)C(=O)N[C@H](C(=O)N[C@H](C(=O)N[C@@H](CCCNC(=N)N)C(=O)N[C@@H](CCCCN)C(=O)N[C@H](C(=O)N[C@H](C(=O)N[C@@H](Cc1c[nH]cn1)C(=O)N[C@H](C(=O)N[C@H](C(=O)N[C@@H](CCCCN)C(=O)N[C@@H](CCCCN)C(=O)O)[C@@H](C)CC)[C@@H](C)CC)[C@@H](C)CC)[C@@H](C)CC)[C@@H](C)CC)[C@@H](C)CC` [SMAP29X-14D], for which the “EC50 P. aeruginosa PAO1” value reads like this: (ionic strength 25 mM) 0.65 ± 0.06 µg/mL (≈ 0.361 µM); (ionic strength 175 mM) 7.11 ± 2.40 µg/mL (≈ 3.95 µM).
On the same counts, the results for `CC[C@H](C)[C@H](NC(=O)[C@H](CCCNC(=N)N)NC(=O)[C@H](CCCNC(=N)N)NC(=O)[C@@H](NC(=O)[C@@H](N)CC(N)=O)[C@@H](C)CC)C(=O)N[C@H](C(=O)N[C@@H](CCCNC(=N)N)C(=O)N[C@@H](CCCCN)C(=O)N[C@H](C(=O)N[C@H](C(=O)N[C@@H](Cc1c[nH]cn1)C(=O)N[C@H](C(=O)N[C@H](C(=O)N[C@@H](CCCCN)C(=O)N[C@@H](CCCCN)C(=O)N[C@@H](Cc1ccc(O)cc1)C(N)=O)[C@@H](C)CC)[C@@H](C)CC)[C@@H](C)CC)[C@@H](C)CC)[C@@H](C)CC` [SMAP29X-16C] are 0.65 µg/mL (≈ 0.313 µM) and 2.21 µg/mL (≈ 1.06 µM).
On to IRRIIRKIIHIIKK-NH2 [SMAP29X-14C], for which the “EC50 P. aeruginosa PAO1” value by setting is: (ionic strength 25 mM) 0.29 ± 0.04 µg/mL; (ionic strength 175 mM) 1.21 ± 0.05 µg/mL.
In the same order, the values of KNIRRIIRKIIHIIKKYG [SMAP29X-18C] are 0.24 ± 0.01 µg/mL and 0.61 ± 0.12 µg/mL.
KNIRRIIRKIIHIIKKYG-NH2 [SMAP29X-18B]: the “EC50 P. aeruginosa PAO1” value (ionic strength 25 mM) is 0.16 ± 0.01 µg/mL and the “EC50 P. aeruginosa PAO1” value (ionic strength 175 mM) stood at 0.54 ± 0.05 µg/mL.
On the same counts, the results for KNLRRIIRKIIHIIKKYG-NH2 [SMAP29X-18A] are 0.22 ± 0.00 µg/mL and 0.49 ± 0.02 µg/mL.
On to LRRIIRKIIHIIK-NH2 [SMAP29X-13A], for which the “EC50 P. aeruginosa PAO1 μg/ml ± sem” value is, setting by setting: (ionic strength 25 mM) 0.27 ± 0.03 µg/mL; (ionic strength 175 mM) 2.23 ± 0.41 µg/mL.
On to LRRIIRKIIHIIKK [SMAP29X-14B], for which the “EC50 P. aeruginosa PAO1” value reads like this: (ionic strength 25 mM) 0.55 ± 0.03 µg/mL; (ionic strength 175 mM) 5.55 ± 0.42 µg/mL.
On the same counts, the results for NIRRIIRKIIHIIKKY [SMAP29X-16D] are 0.70 ± 0.36 µg/mL and 3.64 ± 1.75 µg/mL.
Regarding NLRRIIRKIIHIIKKY [SMAP29X-16A], the “EC50 P. aeruginosa PAO1” value runs as follows: (ionic strength 25 mM) 0.90 ± 0.54 µg/mL; (ionic strength 175 mM) 1.78 ± 0.26 µg/mL.
In the same order, the values of NLRRIIRKIIHIIKKY-NH2 [SMAP29X-16B] are 0.75 µg/mL and 3.78 µg/mL.
On to RGLRALGRKIAHGVKAYG [SMAP29-18AA], for which the “EC50 P. aeruginosa PAO1” value is, setting by setting: (ionic strength 25 mM) 0.62 ± 0.13 µg/mL; (ionic strength 175 mM) 7.85 ± 1.16 µg/mL.
For the molecule RIIRKIIHII-NH2 [SMAP29X-10], the “EC50 P. aeruginosa PAO1 μg/ml ± sem” value is, setting by setting: (ionic strength 25 mM) 0.51 ± 0.00 µg/mL; (ionic strength 175 mM) 18.67 ± 0.97 µg/mL.
In the same order, the values of RIIRKIIHIIK-NH2 [SMAP29X-11B] are 0.46 ± 0.02 µg/mL and 10.42 ± 0.26 µg/mL.
On the same counts, the results for RRIIRKIIHII-NH2 [SMAP29X-11A] are 0.38 ± 0.04 µg/mL and 4.92 ± 0.43 µg/mL.
On the same counts, the results for RRIIRKIIHIIK-NH2 [SMAP29X-12] are 0.31 ± 0.01 µg/mL and 3.83 ± 0.22 µg/mL.
Consider RRIIRKIIHIIKK-NH2 [SMAP29X-13B], for which the “EC50 P. aeruginosa PAO1 μg/ml ± sem” value runs as follows: (ionic strength 25 mM) 0.22 ± 0.02 µg/mL; (ionic strength 175 mM) 1.51 ± 0.09 µg/mL.
